From patent US20230285493A1, “ANTIMICROBIAL COMPOSITION” (Mootral SA, priority 2014, published 2023)

What was measured:
Test in all cases: modified broth dilution assay, 96-well plates (MIC)
Format in all cases: cell-based
[1] = system: Pseudomonas aeruginosa; details: overnight 37.0° C., absorbance 600 nm
Experimental: (§1) In order to determine the minimal inhibitory concentration (MIC) for the bioflavonoids (BC), allicin (AL) and ajoene (AJ) on selected Gram-positive bacteria, Gram-negative bacteria and yeast, a modified broth dilution assay using 96-well plates, according to Wiegand, Hilpert and Hancock (2008), was performed.
(§2) The microorganisms for the study were obtained from Cardiff University. The cultures used in the study were prepared by aseptic inoculation of microorganisms from pure plate cultures into 50 ml of sterile nutrient broth. The cultures were incubated overnight at 37.0° C. without agitation. Prior to use the cultures were washed by centrifugation in a desk top centrifuge at 3000 RPM for 15 minutes and the pellet resuspended in sterile saline (0.85% NaCl).
(§3) In order to determine the activity of the compounds both individually as well as in combination, a range of concentrations of each compound was used in a doubling dilution. The highest concentration used was dependent on the organism in question (whether Gram-positive bacteria, Gram-negative bacteria or yeast). From the highest concentration used in the test the samples were diluted five times in order to give six different concentrations per compound.
(§4) The allicin samples were aqueous solutions and were therefore diluted directly using H2O. However, the ajoene was in oil form and the bioflavonoids were in powder form, neither of which were water soluble. Before dilution the ajoene and bioflavonoids were solubilised by creation of a stock solution using 80% DMSO.
(§5) The wells on the 96-well plates were prepared in triplicate as follows: the AL, AJ and BC were pre-diluted in Eppendorf tubes at 10× the required final concentration. 20 μl of each dilution was added per well to give a 1:10 dilution in the final 200 μl per well. A matrix of concentrations of mixtures of allicin:bioflavonoid, ajoene:bioflavonoid and allicin:ajoene:bioflavonoid was used, with the dilution gradients of allicin and ajoene running inversely to bioflavonoids.
(§6) 130 μl of sterile nutrient broth (Nutrient Broth No. 3 (Sigma 70149)) was added to each well.
(§7) 50 μl of each microorganism suspended in saline was added to each well (except for the negative control). Each species of microorganism was added to two plates, the first for the individual (control) assays and the second for the matrix study. The plates were incubated at 37.0° C. overnight without agitation.
(§8) The plates were scanned individually using a Tecan plate reader at 600 nm and the absorbance recorded in a comma-delimited file for analysis.
(§9) The absorbance for each sample was compared to the growth (absorbance) of the control cultures (without treatment) in order to determine the MIC (all values blanked against negative control to negate absorbance of plate and broth). The mean and standard deviation of the triplicate experiments were determined and the means plotted on scatter diagrams for comparison.

[2] = system: Candida tropicalis; details: overnight 37.0° C., absorbance 600 nm
Experimental: as §1, §2, §3, §4, §5, §6, §7, §8, §9

[3] = system: Klebsiella pneumonia; details: Klebsiella pneumoniae, overnight 37.0° C., absorbance 600 nm
Experimental: as §1, §2, §3, §4, §5, §6, §7, §8, §9

[4] = system: Staphylococcus aureus; details: overnight 37.0° C., absorbance 600 nm
Experimental: as §1, §2, §3, §4, §5, §6, §7, §8, §9

[5] = system: Escherichia coli; details: overnight 37.0° C., absorbance 600 nm
Experimental: as §1, §2, §3, §4, §5, §6, §7, §8, §9

[6] = system: Bacillus subtilis; details: overnight 37.0° C., absorbance 600 nm
Experimental: as §1, §2, §3, §4, §5, §6, §7, §8, §9

C=CCS[S+]([O-])CC=C (stereo not drawn) [Allicin, 2-Propene-1-sulfinothioic acid S-2-propenyl]
MIC [1]: 9.2 µg/mL | MIC [2]: 9.2 µg/mL | MIC [3]: 46 µg/mL | MIC [4]: 27.6 µg/mL | MIC [5]: 18.4 µg/mL | MIC [6]: 9.2 µg/mL

C=CCSSC=CC[S+]([O-])CC=C (mixture of isomers) [Ajoene, (E,Z)-4,5,9-trithiadodeca-1,6,11-triene 9-oxide]
MIC [1]: 12 µg/mL | MIC [2]: 24 µg/mL | MIC [3]: 12 µg/mL | MIC [4]: 48 µg/mL | MIC [5]: 24 µg/mL | MIC [6]: 24 µg/mL
